According to patent US5602140A, “Purine derivatives and suppressants for inflammatory diseases” (Japan Energy Corporation, priority 1994, dated 1997):
Where a name gives a salt, the structure may show the parent alone.

How the values were obtained:
[1] = system: platelet aggregation induced by PAF; assay: Anti-PAF activity: inhibition of platelet aggregation induced by PAF in platelet rich plasma; format: cell-based, rabbit; details: Oryctolagus cuniculus, PAF 10 nM, test compound concentration 30 μM, read-out: Inhibitory rate
Method: Anti-PAF activity of purine derivatives of the present invention was evaluated in the inhibition of platelet aggregation induced by PAF (platelet activation factor).
In the present evaluation, blood was drawn from rabbit and 9 volumes of the blood was added with 1 volume of 3.8% sodium citrate solution, centrifuged at 2,000 rpm for 3 min. to give platelet rich plasma (PRP). In a platelet aggregation determination apparatus, 200 μl of the PRP solution and 25 μl of a solution prepared from a predetermined amount of the test compound were mixed and incubated for 2 min. The incubated mixture was added with 25 μl of a solution containing a predetermined amount of PAF to cause platelet aggregation induced by PAF in the test solution. A concentration of PAF was 10 nM in the test solution. The inhibitory rate against platelet aggregation induced by PAF was calculated from the changes of transmission accompanied by the platelet aggregation.
Various concentrations of the test compounds in the test solution were selected to investigate the relationship between the concentration and the inhibitory rate for the evaluation of inhibitory rate of platelet aggregation induced by PAF. […] The inhibitory rate for the positive control compound, CV-3988 (rac-3-(N-n-octadecylcarbamoyl)-2-methoxypropyl-2-thiazolium ethyl phosphate) is also shown in Table 4.

[2] = system: platelet aggregation induced by PAF; details: Life Science, 32, 1975-1982 (1983); cited from earlier work
[3] = Scavenging of active oxygen / inhibitory effect against lipid peroxidation (oxidation of linolenic acid to conjugated diene by hydroxy radical, Fenton reaction); format: biochemical; details: linolenic acid 1.0 mM, absorbance at 234 nm
Method: The inhibitory effect against oxidation of linolenic acid to conjugated diene due to hydroxy radical (. OH) formed by Fenton reaction was determined according to the method of Kharasch et al. (see J. Biol. Chem., 2.60, 10,645 (1985)). A predetermined concentration of FeCl2 solution was added to a mixture of water and DMSO containing predetermined amount of linolenic acid, NaCl, H2 O2, Lubrol and the rest compound to start the reaction. […] Then, the changes of absorbance at 234 nm due to the formation of conjugated diene in the reaction solutions were determined periodically. The inhibitory rate (%) was estimated from the differences between the test solutions and corresponding solutions without the test compound. When the difference of said reaction rate was 0 (zero), then the inhibitory rate was made 0%, and when the reaction rate was 0 (zero), then the inhibitory rate was made 100%.
The inhibitory rate was estimated for various concentrations of said test compounds and the 50%-inhibitory concentration (IC50) was regressively calculated. The preventive effect against lipid peroxidation was evaluated using IC50.

[4] = molecular target: TXA2 synthesis (crude TXA2 synthetase); assay: Inhibition of TXA2 synthesis (crude TXA2 synthetase, labeled arachidonic acid, RIA); format: biochemical, human; details: for IC50: TXA2 formation, 37° C., 10 min
Method: Inhibitory effect against TXA2 synthesis was evaluated by the method shown below determining the formation of TXA2 as an arachidonic acid metabolite in the presence of purine derivatives of the present invention.
TXA2 (thromboxane A2) is reported to be synthesized by TXA2 synthetase in arachidonic acid cascade via a cyclic peroxide (PGH2) formed by cyclooxygenase system. Crude TXA2 synthetase was prepared by the following method in the present invention. Blood drawn from healthy volunteer was centrifuged at 200 G for 15 min. and the resulting supernatant was further centrifuged at 2,000 G for 10 min. to give precipitates. The precipitates were homogenized in 0.01M phosphate buffer and centrifuged at 1,000 G for 10 min. to give a supernatant. The resultant supernatant was used as a crude TXA2 synthetase in the following processes. […] The reaction solution was incubated at 37° C. for 10 min. and TXA2 formed in the reaction mixture was determined by RIA method using a commercially available kit (Amersham Co., Ltd., RIA kit). The inhibitory rate was calculated from the difference between the determined amount of formed TXA2 and that carried out in the absence of the test compound. When the difference of formed amount of TXA2 was 0 (zero), then the inhibitory rate was made 0% and when the formation of TXA2 was equal to that of solvent control without TXA2 synthetase, then the inhibitory rate was made 100%.
The inhibitory rate was estimated for various concentrations of said test compounds and the concentration of 50%-inhibition (IC50) was regressively calculated. The inhibitory effect against TXA2 formation was evaluated using IC50.

endotoxin induced death = assay: Activity for the endotoxin (LPS) induced death in mice; format: in vivo, male ICR mice; details: for Survival rate: oral twice (30 min before and 8 hrs after LPS 15 mg/kg i.p.), within 4 days, control 50%
Method: (Activity for the endotoxin induced death) Activity of purine derivatives of the present invention for endothelial cell damage by endotoxin was evaluated by the following method.
In the present method of evaluation, endotoxin caused endothelial cell damage was induced by intraperitoneal administration of LPS (E. coli 055:B5) to male ICR mice. The body weight of test mice was determined beforehand and a dose of 15 mg/kg (body weight) of LPS was predetermined. After administration of LPS, the difference between the number of dead mice induced by endotoxin within 4 days and the total number of mice was divided by the total number of mice to give the survival rate. The dose per body weight of test compound was predetermined and orally administered at 30 min. before induction (LPS administration) and at 8 hrs. after the induction, twice in total. The test compounds were suspended in 0.5% CMC--Na aqueous solution.
Various doses of the test compounds per body weight were selected to investigate the relationship between the dose and survival rate for the evaluation of inhibitory effect against endotoxin induced death. […] While, control group was given the same dose of 0.5% CMC--Na aqueous solution only. […] That is, the inhibitory effect of the compound of the present invention against endotoxin induced death was clearly observed.

[5] = system: nephrotoxin-induced nephritis; assay: Effect on nephrotoxin-induced nephritis (anti-GBM serum) in rats; format: in vivo, male SD rats; details: for Serum parameter BUN / Serum parameter Total cholesterol / Serum parameter triglyceride / Urinary protein One day before induction / Urinary protein Day 5 after induction / Urinary protein Day 3 after induction: oral once daily, means ± S.E.; for Serum parameter BUN: control 27.6 ± 0.9; for Serum parameter Total cholesterol: control 75 ± 3; for Serum parameter triglyceride: control 161 ± 25; for Urinary protein One day before induction: control 12.2 ± 1.1; for Urinary protein Day 5 after induction: control 72.1 ± 25.7; for Urinary protein Day 3 after induction: control 74.1 ± 25.6
Method: Inhibitory effect of purine derivatives of the present invention against nephrotoxin-induced nephritis was evaluated by the following method.
In the present method of evaluation, nephrotoxin-induced nephritis was induced by administration of anti-GBM (glomerular basement membrane) serum to 9-week old male SD rats. The anti-GBM serum was prepared according to a known method (see Kidney and Dialysis (Jin to Toseki) 31, Special Issue, p. 202-206 (1991), Pub. by Tokyo Igakusha Ltd., Tokyo, Japan). Anti-GBM serum was intravenously administered at an induction dose of 0.15 ml/300 g (body weight). The predetermined dose per body weight of the test compound was suspended in 0.5% CMC--Na aqueous solution and orally administered once daily for consecutive 7 days starting from one day before induction (administration of anti-GBM serum). While, control group was given the same dose of 0.5% CMC--Na aqueous solution only. During the administration period of the test compound, urinary protein was measured every 24 hrs. Seven days after the induction, blood was drawn to prepare serum sample by a conventional method, and BUN, total cholesterol and triglyceride were measured.
Various doses of the test compounds per body weight were selected to investigate the relationship between the dose and urinary protein for the evaluation of inhibitory effect against nephrotoxin-induced nephritis.

[6] = system: TXA2 synthesis (crude TXA2 synthetase); details: J. Med. Chem., 24, 1139-1149 (1981); cited from earlier work
[7] = dose 30 mg/kg, day 7 after induction
[8] = dose 100 mg/kg, day 7 after induction, *p < 0.05

| Compound | IC50 [3] [µM] | IC50 [4] [µM] | inhibition at 30 µM [1] [%] | further results |
| --- | --- | --- | --- | --- |
| CCCCCCCCCCCCCCCCCCNC(=O)OCC(COP(=O)([O-])OCC[n+]1ccsc1)OC (racemic) [CV-3988, rac-3-(N-n-octadecylcarbamoyl)-2-methoxypropyl-2-thiazolium ethyl phosphate, reference compound] | – | – | 78 | anti-PAF activity (literature, in words) [2]: high anti-PAF activity |
| CCCOc1nc(-c2cc(C(C)(C)C)c(O)c(C(C)(C)C)c2)nc2nc[nH]c12 [Example 2, 2-(3,5-di-tert-butyl-4-hydroxyphenyl)-6-n-propoxypurine] | 3.4 | 0.157 | 57 | Survival rate (endotoxin induced death; dose 100 mg/kg): 68%; Survival rate (endotoxin induced death; dose 300 mg/kg): 75%; effect on survival / endotoxin induced death (in words) (endotoxin induced death; oral, 100 and 300 mg/kg): increase in survival rate with the increase of dose was clearly observed; Serum parameter BUN [5, 7]: 26.9 ± 0.8 mg/dL; Serum parameter Total cholesterol [5, 7]: 72 ± 6 mg/dL; Serum parameter triglyceride [5, 7]: 125 ± 20 mg/dL; Urinary protein One day before induction ([5]; dose 30 mg/kg): 10.5 ± 0.8 mg/day; Urinary protein Day 5 after induction ([5]; dose 30 mg/kg): 52.8 ± 16.7 mg/day; Urinary protein Day 3 after induction ([5]; dose 30 mg/kg): 49.0 ± 16.7 mg/day; Serum parameter triglyceride ([5]; dose 100 mg/kg, day 7 after induction, **p < 0.01): 60 ± 4 mg/dL; Serum parameter BUN [5, 8]: 23.6 ± 1.6 mg/dL; Serum parameter Total cholesterol [5, 8]: 66 ± 2 mg/dL; Urinary protein Day 5 after induction ([5]; dose 100 mg/kg, *p < 0.05): 14.3 ± 1.0 mg/day; Urinary protein Day 3 after induction ([5]; dose 100 mg/kg, *p < 0.05): 14.5 ± 1.7 mg/day; Urinary protein One day before induction ([5]; dose 100 mg/kg): 12.2 ± 2.5 mg/day; inhibitory effect against increase of urinary protein (in words) ([5]; oral, 30 and 100 mg/kg): dose dependent inhibitory effect against increase of urinary protein; concentrations of serum BUN, total cholesterol and triglyceride (in words) ([5]; oral, 30 and 100 mg/kg, day 7 after induction): dose dependent decrease; inhibitory effect against formation of TXA2 (in words) [4]: remarkable inhibitory effect against formation of TXA2 |
| CCCCOc1nc(-c2cc(C(C)(C)C)c(O)c(C(C)(C)C)c2)nc2nc[nH]c12 [Example 3, 6-n-butoxy-2-(3,5-di-tert-butyl-4-hydroxyphenyl)purine] | 3.5 | 0.174 | 78 | inhibitory effect against formation of TXA2 (in words) [4]: remarkable inhibitory effect against formation of TXA2 |
| CCCCCCOc1nc(-c2cc(C(C)(C)C)c(O)c(C(C)(C)C)c2)nc2nc[nH]c12 [Example 4, 2-(3,5-di-tert-butyl-4-hydroxyphenyl)-6-n-hexyloxypurine] | 3.7 | 0.942 | 61 | – |
| CC(C)(C)c1cc(-c2nc(OCCc3ccccc3)c3[nH]cnc3n2)cc(C(C)(C)C)c1O [Example 6, 2-(3,5-di-tert-butyl-4-hydroxyphenyl)-6-phenethyloxypurine] | 3.5 | 0.681 | 35 | – |
| CC(C)(C)c1cc(-c2nc(OCCCCCCCC(=O)O)c3[nH]cnc3n2)cc(C(C)(C)C)c1O [Example 10, 6-(7-carboxy-n-heptyloxy)-2-(3,5-di-tert-butyl-4-hydroxyphenyl)purine] | 3.7 | – | 4 | – |

More lines, main results first:

| IC50 [3] [µM] | IC50 [4] [µM] | Compound | inhibition at 30 µM [1] [%] | further results |
| --- | --- | --- | --- | --- |
| 3.5 | 0.963 | COc1nc(-c2cc(C(C)(C)C)c(O)c(C(C)(C)C)c2)nc2nc[nH]c12 [Example 1, 2-(3,5-di-tert-butyl-4-hydroxyphenyl)-6-methoxypurine] | 46 | – |
| 5.4 | – | CCCCCCCCOc1nc(-c2cc(C(C)(C)C)c(O)c(C(C)(C)C)c2)nc2nc[nH]c12 [Example 5, 2-(3,5-di-tert-butyl-4-hydroxyphenyl)-6-n-octyloxypurine] | 15 | – |
| 3.4 | – | CC(C)(C)c1cc(-c2nc(O)c3[nH]cnc3n2)cc(C(C)(C)C)c1O [Example 7, 2-(3,5-di-tert-butyl-4-hydroxyphenyl)-6-hydroxypurine] | 5 | – |
| 4 | – | CC(C)(C)c1cc(-c2nc(OCCCC(=O)O)c3[nH]cnc3n2)cc(C(C)(C)C)c1O [Example 8, 6-(3-carboxy-n-propoxy)-2-(3,5-di-tert-butyl-4-hydroxyphenyl)purine] | 5 | – |
| 3.6 | – | CC(C)(C)c1cc(-c2nc(OCCCCCC(=O)O)c3[nH]cnc3n2)cc(C(C)(C)C)c1O [Example 9, 6-(5-carboxy-n-pentyloxy)-2-(3,5-di-tert-butyl-4-hydroxyphenyl)purine] | 2 | – |
| 3.9 | – | CC(C)(C)c1cc(-c2nc(OCc3ccc(C(=O)O)cc3)c3[nH]cnc3n2)cc(C(C)(C)C)c1O [Example 11, 6-(4-carboxybenzyloxy)-2-(3,5-di-tert-butyl-4-hydroxyphenyl)purine] | 53 | – |
| – | 0.017 | O=C(O)/C=C/c1ccc(Cn2ccnc2)cc1 [Ozagrel HCl, reference compound] | – | inhibitory effect against TXA2 synthesis (literature, in words) [6]: very high inhibitory effect against TXA2 synthesis |
